Laboratory results reported in patent US20040171489A1, “Synergistic active compound combinations for controlling harmful plants” (priority 1998, published 2004).
Counter-ions that a name gives are not always drawn.

Key:
[1] = test system: Matricaria chamomilla; experiment: Example 14 field trial, 2- to 4-leaf stage: herbicidal effect; type: in vivo; conditions: 28 days after application
Description: (§1) The herbicidal efficacy of the active compounds or active compound mixtures was scored visually using the treated plots in comparison to untreated control plots. The damage and development of all above-ground parts of the plants were recorded. Scoring was carried out using a percentage scale (100% effect=all plants killed; 50% effect=50% of the plants and the green parts of the plants killed; 0% effect=no noticeable effect=like control plot. The scores of in each case 4 plots were averaged.
(§2) If the observed activity values already exceed the formal sum of the values for the trials with the individual applications, they also exceed the expected value according to Colby which is calculated using the following formula and which is likewise considered to be an indication of synergism (cf. S. R. Colby; in Weeds 15 (1967) p. 20 to 22):
(§3) Crop plants were grown outdoors on plots under natural outdoor conditions, and seeds or rhizome pieces of typical harmful plants were laid out or the natural weed growth was utilized. Treatment with the compositions according to the invention was carried out after the harmful plants had emerged and the crop plants were, generally, at the 2- to 4-leaf stage; in some cases (as stated), application of individual active compounds or active compound combinations was carried out pre-emergence (cf. Section 1) or post-emergence (cf. Section 2) or as a sequential treatment partly pre-emergence and/or post-emergence. After the application, for example 2, 4, 6 and 8 weeks after the application, the effect of the preparations was scored visually by comparison with untreated controls (cf. scoring in Section 1). In the field trial as well, the compositions according to the invention have synergistic herbicidal activity against a broad spectrum of economically important weed grasses and broad-leaved weeds. […] Moreover, the effects in essential phases of the scoring period were above the expected values according to Colby, also indicating synergism. In contrast, the crop plants were, as a consequence of the treatments with the herbicidal compositions, damaged only to a small degree, if at all.

[2] = test system: summer wheat; experiment: Example 14 field trial, 2- to 4-leaf stage: crop damage; type: in vivo, Triticum aestivum; conditions: 28 days after application
Description: The damage and development of all above-ground parts of the plants were recorded.
Crop plants were grown outdoors on plots under natural outdoor conditions, and seeds or rhizome pieces of typical harmful plants were laid out or the natural weed growth was utilized.

[3] = test system: Sorghum verticilliflorum; experiment: Example 13 field trial, 2- to 4-leaf stage: herbicidal effect; type: in vivo; conditions: 17 days after application
Description: as §1, §2, §3

[4] = test system: summer wheat; experiment: Example 13 field trial, 2- to 4-leaf stage: crop damage; type: in vivo, Triticum aestivum; conditions: 17 days after application
Description: as §1, §2, §3

[5] = test system: Lamium purpurea; experiment: Example 12 field trial, 2- to 4-leaf stage: herbicidal effect; type: in vivo; conditions: 42 days after application
Description: as §1, §2, §3

[6] = test system: winter wheat; experiment: Example 12 field trial, 2- to 4-leaf stage: crop damage; type: in vivo, Triticum aestivum
Description: as §1, §2, §3

[7] = test system: Monochoria vaginalis; experiment: Example 22 field trial, 2-leaf stage: herbicidal effect; type: in vivo; conditions: 60 g of ai/ha; 14 days after application
Description: as §1, §2, §3

[8] = test system: Oryza sativa (rice); experiment: Example 22 field trial, 2-leaf stage: crop damage; type: in vivo; conditions: 60 g of ai/ha; 14 days after application
Description: as §1, §2, §3

[9] = test system: winter barley; experiment: Example 5 field trial, 2-4 leaf stage: crop damage; type: in vivo, Hordeum vulgare; conditions: winter barley (Hordeum vulgare), in vivo, 28 days
Description: as §1, §2
as §3, with “In contrast, the crop plants were, as a consequence of the treatments with the herbicidal compositions, damaged only to a small degree, if at all.” left out

[10] = test system: Papaver rhoeas; experiment: Example 5 field trial, 2-4 leaf stage: herbicidal effect; type: in vivo; conditions: 2.5 g of ai/ha; 28 days after application
Description: as §1, §2
as §3, with “In contrast, the crop plants were, as a consequence of the treatments with the herbicidal compositions, damaged only to a small degree, if at all.” left out

[11] = test system: Capsella bursa-pastoris; experiment: Example 11 field trial, 2- to 4-leaf stage: herbicidal effect; type: in vivo; conditions: 28 days after application
Description: as §1, §2, §3

[12] = test system: winter wheat; experiment: Example 11 field trial, 2- to 4-leaf stage: crop damage; type: in vivo, Triticum aestivum; conditions: 28 days after application
Description: as §1, §2, §3

[13] = test system: Galium aparine; experiment: Example 10 pre-emergence application, fall: herbicidal effect; type: in vivo; conditions: 250 g of ai/ha; 169 days after application
Text: (§4) Seeds or rhizome pieces of monocotyledonous and dicotyledonous weed plants are placed in sandy loam soil in pots and covered with soil. The compositions, formulated in the form of concentrated aqueous solutions, wettable powders or emulsion concentrates, are then applied to the surface of the soil cover as aqueous solution, suspension or emulsion at an application rate of 600 to 800 l of water/ha (converted), in various dosages. After the treatment, the pots are placed in a greenhouse and kept under good growth conditions for the weeds. After the test plants have emerged, the damage to the plants or the negative effects on the emergence is scored visually after a test period of 3 to 4 weeks by comparison with untreated controls. As shown by the test results, the compositions according to the invention have good herbicidal pre-emergence activity against a broad spectrum of weed grasses and broad-leaved weeds.
as §1, §2, §3

[14] = test system: winter wheat; experiment: Example 10 pre-emergence application, fall: crop damage; type: in vivo, Triticum aestivum; conditions: 250 g of ai/ha; 169 days after application
Text: as §4, §1, §2, §3

**Q.** `Cc1cc(Cl)ccc1O[C@@H](C)C(=O)O` [(B2.2.4), mecoprop-P] was tested. Which “herbicidal effect, MATCH” value ([1]; 750 g of ai/ha) did it give?
**A.** Its value is 54%.

**Q.** And the “herbicidal effect, MATCH” value ([1]; 1500 g of ai/ha)?
**A.** Its value is 63%.

**Q.** What about the “damage, TRZAS” value ([2]; 750 g of ai/ha) of the same molecule?
**A.** Its value is 0%.

**Q.** What about the “damage, TRZAS” value ([2]; 1500 g of ai/ha) of the same molecule?
**A.** Its value is 0%.

**Q.** Which “herbicidal effect, SORVE” value ([3]; 225 g of ai/ha) does the source give for `N#Cc1cc(Br)c(O)c(Br)c1` [(B2.3.1), bromoxynil] here?
**A.** Its value is 0%.

**Q.** And the “herbicidal effect, SORVE” value ([3]; 450 g of ai/ha)?
**A.** The value was 25%.

**Q.** What about the “damage, TRZAS” value ([4]; 225 g of ai/ha) of the same molecule?
**A.** The value was 0%.

**Q.** And the “damage, TRZAS” value ([4]; 450 g of ai/ha)?
**A.** The value was 0%.

**Q.** With `N#Cc1cc(I)c(O)c(I)c1` [(B2.3.2), ioxynil] as the molecule, how does the “herbicidal effect, MATCH” value ([1]; 187 g of ai/ha) read?
**A.** The value was 30%.

**Q.** What about the “herbicidal effect, MATCH” value ([1]; 375 g of ai/ha) of the same molecule?
**A.** The value was 45%.

**Q.** With `COc1ncc(F)c2nc(S(=O)(=O)Nc3c(F)cccc3F)nn12` [(B2.5.2), florasulam] as the molecule, how does the “herbicidal effect, LAMPU” value ([5]; 3.7 g of ai/ha) read?
**A.** The value was 35%.

**Q.** What about the “herbicidal effect, LAMPU” value ([5]; 7.5 g of ai/ha) of the same molecule?
**A.** Its value is 35%.

**Q.** And the “herbicidal effect, LAMPU” value ([5]; 15 g of ai/ha)?
**A.** Its value is 40%.

**Q.** And the “damage, TRZAW” value ([6]; 3.7 g of ai/ha, 42 days after application)?
**A.** The value was 3%.

**Q.** And the “damage, TRZAW” value ([6]; 7.5 g of ai/ha, 42 days after application)?
**A.** The value was 3%.

**Q.** What about the “damage, TRZAW” value ([6]; 15 g of ai/ha, 42 days after application) of the same molecule?
**A.** Its value is 6%.

**Q.** For `CCOC(=O)C(Cl)Cc1cc(-n2nc(C)n(C(F)F)c2=O)c(F)cc1Cl` (centres unmarked) [(B2.6.3), carfentrazone-ethyl, reference compound], which “herbicidal effect, MOOVA” value [7] is on record?
**A.** The value was 47%.

**Q.** What about the “damage, ORYSA” value [8] of the same molecule?
**A.** The value was 0%.

**Q.** With `CCOC(=O)/C(Cl)=C/c1cc(N2C(=O)C3=C(CCCC3)C2=O)ccc1Cl` [(B2.6.8), cinidon-ethyl] as the molecule, how does the “herbicidal effect, LAMPU” value ([5]; 25 g of ai/ha) read?
**A.** Its value is 60%.

**Q.** And the “herbicidal effect, LAMPU” value ([5]; 50 g of ai/ha)?
**A.** Its value is 60%.

**Q.** What about the “damage, TRZAW” value ([6]; in vivo) of the same molecule?
**A.** The value was 3%.

**Q.** How did the “damage, HORVW” value [9] turn out when `COc1nc(C)nc(NC(=O)NS(=O)(=O)c2cc(I)ccc2C(=O)O)n1` [(B3.1.4), iodosulfuron-methyl sodium salt, reference compound] was run?
**A.** The value was 0%.

**Q.** What about the “herbicidal effect, PAPRH” value [10] of the same molecule?
**A.** The value was 0%.

**Q.** How did the “herbicidal effect, CAPPBP” value ([11]; 75 g of ai/ha) turn out when `O=C(Nc1ccc(F)cc1F)c1cccnc1Oc1cccc(C(F)(F)F)c1` [(B3.4.2), diflufenican, reference compound] was run?
**A.** Its value is 45%.

**Q.** What about the “herbicidal effect, CAPPBP” value ([11]; 150 g of ai/ha) of the same molecule?
**A.** Its value is 67%.

**Q.** And the “damage, TRZAW” value ([12]; 75 g of ai/ha)?
**A.** The value was 0%.

**Q.** And the “damage, TRZAW” value ([12]; 150 g of ai/ha)?
**A.** The value was 0%.

**Q.** `CNC1=C(c2cccc(C(F)(F)F)c2)C(=O)C(c2ccccc2)O1` (centres unmarked) [(B3.4.4), flurtamone] was tested. Which “herbicidal effect, GALAP” value [13] did it give?
**A.** The value was 50%.

**Q.** And the “damage, TRZAW” value [14]?
**A.** The value was 2%.
